Test systems include 786-0; DU-145; HL-60; IGROV-1; LOX IMVI; MDA-N; NCI-H226; NCI-H23; NCI-H522; SF-268; SK-MEL-28; SN12C; SNB-19; UACC-257; UACC-62; A498; COLO 205; SR; T47D.
Common to all, as to assay: NCI tumour cell line growth inhibition, 48 h

The structures appear in SMILES notation.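 96-well plates; 48 h exposure; 5 concentrations. Endpoints by linear interpolation between flanking doses. Not reached: highest tested concentration assigned. GI50 is the concentration that inhibits growth by half.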 Activity calls are given as the source filed them. No stated cut-off is given here; in the data, active = GI50 up to about 1.1 µM and inactive = higher. Where only a bound is given, the exact number is not on record here.

As for `CC(C)CCc1c(Cl)nc(Cl)nc1Cl`, the GI50 in the assay on 786-0 was 20.3 µM (inactive); in the assay with DU-145 it was 17.3 µM (inactive); in the assay on HL-60 it was > 100 µM (inactive); with IGROV-1 it was 18 µM (inactive); in the assay on LOX IMVI, 0.726 µM (active); in the assay on MDA-N it was 3.98 µM (inactive). Moreover, the GI50 in the assay on NCI-H226 is 4.44 µM (inactive); in the assay on NCI-H23, 8.97 µM (inactive); in the assay with NCI-H522, 2.71 µM (inactive); in the assay with SF-268 it was 17.6 µM (inactive); in the assay with SK-MEL-28 it was 9.04 µM (inactive); in the assay on SN12C, 10.7 µM (inactive). Further, the GI50 is 22 µM (inactive) in the assay on SNB-19, 16.7 µM (inactive) in the assay with UACC-257 and 12 µM (inactive) with UACC-62.
Regarding `C/C(=C\CC/C=C(\C)CC/C=C(\C)CCC1SC1(C)C)CC/C=C(\C)CCC1OC1(C)C` (stereo not drawn), the GI50 with 786-0, in the assay with A498, in the assay with COLO 205, with HL-60, in the assay with IGROV-1 and with NCI-H226 was > 100 µM (inactive) in each case. The GI50 in the assay with NCI-H23 is > 100 µM (inactive); in the assay with NCI-H522 it was 47.3 µM (inactive); with SF-268, > 100 µM (inactive); with SK-MEL-28 it was > 100 µM (inactive); with SN12C, > 100 µM (inactive); in the assay on SNB-19, > 100 µM (inactive). Also, the GI50 in the assay on SR was > 100 µM (inactive).
As to `C=C(Nc1nc2ccc(C)cc2s1)C(=O)C(CC)C(=O)C(CC)CC1C(=O)NC(=O)NC1=O` (stereo not drawn), the GI50 in the assay with 786-0, in the assay with COLO 205, in the assay on DU-145, in the assay with HL-60, in the assay with IGROV-1 and in the assay with LOX IMVI was > 100 µM (inactive) in each case. Besides, the GI50 in the assay on MDA-N, in the assay on NCI-H226, in the assay with NCI-H23, in the assay on NCI-H522, with SF-268 and with SK-MEL-28 was > 100 µM (inactive) in each case. The GI50 in the assay on SN12C, with SNB-19, in the assay with UACC-257 and in the assay with UACC-62 was > 100 µM (inactive) throughout.
`COc1ccc(Oc2nc3c(N)cc(C(F)(F)F)cc3nc2-c2ccccc2)cc1`: the GI50 in the assay on 786-0 is 20.5 µM (inactive); with A498 it was 28.2 µM (inactive); with COLO 205 it was 12.8 µM (inactive); with HL-60, 59.6 µM (inactive); in the assay with IGROV-1, 13.6 µM (inactive); with LOX IMVI it was 17.3 µM (inactive). Also, the GI50 was 11.9 µM (inactive) in the assay with NCI-H226; 50.9 µM (inactive) in the assay with NCI-H23; 20.6 µM (inactive) with SF-268; 85.9 µM (inactive) in the assay with SK-MEL-28; 36.1 µM (inactive) with SNB-19; 19.9 µM (inactive) in the assay with SR. In addition, the GI50 is 8.04 µM (inactive) with T47D, 39.2 µM (inactive) with UACC-257 and 31.4 µM (inactive) with UACC-62.
In the case of `CCOC(=O)/C(=C/Nc1c(C)n(C)n(-c2ccccc2)c1=O)C(C)=O`, the GI50 in the assay with 786-0, in the assay on A498, in the assay on COLO 205, in the assay with DU-145, in the assay on HL-60 and with IGROV-1 was > 100 µM (inactive) in each case. Further, the GI50 in the assay on LOX IMVI, with MDA-N, with NCI-H226, with NCI-H23, in the assay with NCI-H522 and with SN12C was > 100 µM (inactive) throughout. Besides, the GI50 in the assay on SR, in the assay with UACC-257 and in the assay with UACC-62 was > 100 µM (inactive) in each case.
With `CN(C)CCCNc1cnc2cc3ccccc3cc2n1`, the GI50 in the assay on 786-0 is 31 µM (inactive); in the assay on A498, 17.5 µM (inactive); in the assay with COLO 205, 18.3 µM (inactive); in the assay with DU-145 it was 41 µM (inactive); in the assay with HL-60, 32.2 µM (inactive); with IGROV-1, 13.9 µM (inactive). In addition, the GI50 was 14.3 µM (inactive) in the assay with LOX IMVI; 32.8 µM (inactive) in the assay on MDA-N; 16.8 µM (inactive) with NCI-H226; 25.1 µM (inactive) in the assay with NCI-H23; 19.8 µM (inactive) in the assay on NCI-H522; 23.8 µM (inactive) in the assay with SF-268. Further, the GI50 is 22.6 µM (inactive) in the assay with SK-MEL-28; 33.1 µM (inactive) in the assay with SN12C; 36.1 µM (inactive) in the assay with SNB-19; 61.1 µM (inactive) with SR; 19.2 µM (inactive) with UACC-257; 15.6 µM (inactive) with UACC-62.
As to `Cc1cc(=O)nc(S(=O)(=O)NC(=S)Nc2ccc(Br)cc2)[nH]1`, the GI50 was > 100 µM (inactive) in the assay on 786-0; > 100 µM (inactive) in the assay on A498; > 100 µM (inactive) with COLO 205; > 100 µM (inactive) in the assay on DU-145; > 100 µM (inactive) with HL-60; 73.1 µM (inactive) in the assay with IGROV-1. The GI50 in the assay on NCI-H226 was > 100 µM (inactive); with NCI-H23 it was > 100 µM (inactive); in the assay on NCI-H522, 18.6 µM (inactive); in the assay with SF-268, > 100 µM (inactive); in the assay with SK-MEL-28, > 100 µM (inactive); with SN12C, > 100 µM (inactive). Further, the GI50 with SNB-19, in the assay on T47D, in the assay with UACC-257 and in the assay with UACC-62 was > 100 µM (inactive) in each case.
For `O=[N+]([O-])c1cc(Cl)ccc1S(=O)(=O)c1ccccc1`, the GI50 in the assay with 786-0 was > 100 µM (inactive); in the assay on A498, > 100 µM (inactive); in the assay on COLO 205, 70 µM (inactive); in the assay on DU-145 it was > 100 µM (inactive); in the assay on HL-60, 38.9 µM (inactive); in the assay on IGROV-1, > 100 µM (inactive). The GI50 is 27.6 µM (inactive) in the assay with LOX IMVI; 67.6 µM (inactive) in the assay on NCI-H226; 54.1 µM (inactive) in the assay on NCI-H23; 57.4 µM (inactive) in the assay on NCI-H522; 83.6 µM (inactive) in the assay with SF-268; > 100 µM (inactive) in the assay with SK-MEL-28. The GI50 was > 100 µM (inactive) in the assay with SN12C; > 100 µM (inactive) with SNB-19; 66.7 µM (inactive) with T47D; 34 µM (inactive) in the assay on UACC-257; 53 µM (inactive) in the assay with UACC-62.
Regarding `C=C(Cl)C(C)(Cl)CCC(Br)C(C)(C)Cl` (stereo not drawn), the GI50 with 786-0 was 17.5 µM (inactive); with A498 it was 41.5 µM (inactive); with COLO 205, 17.3 µM (inactive); in the assay with DU-145, 20.9 µM (inactive); with HL-60, 37.1 µM (inactive); in the assay with IGROV-1 it was 28.8 µM (inactive). In addition, the GI50 in the assay on LOX IMVI was 13.3 µM (inactive); in the assay on MDA-N, 15.8 µM (inactive); with NCI-H226 it was 41.8 µM (inactive); with NCI-H23 it was 19.1 µM (inactive); in the assay with NCI-H522 it was 11.2 µM (inactive); in the assay on SF-268, 33.2 µM (inactive). In addition, the GI50 in the assay with SK-MEL-28 was 21.2 µM (inactive); in the assay with SN12C, 16.7 µM (inactive); with SNB-19, 51.5 µM (inactive); in the assay on SR it was 21.9 µM (inactive); with UACC-257, 15.9 µM (inactive); in the assay on UACC-62, 14.9 µM (inactive).
